{"source": "patent US20110135761A1", "about": "“ANTIMICROBIAL SUTURE FOR MEDICAL USE WITH GRAPEFRUIT EXTRACT, AND MANUFACTURING METHOD THEREOF” (Korea Institute of Ceramic Engineering and Technology, priority 2009, published 2011)", "format": "physicochemical", "excerpt": "The short degradation period refers that the biodegradation effect is high; it has advantage that the secondary infection due to the suture is decreased."}
{"substance": "poly(glycolide-co-L-lactide) [PGLA suture]", "values": [{"measurement": "degradation behavior (in words)", "value": "degradation of the suture was quickly progressed"}]}
